2 compounds from patent US12576114B2, “Methods of functional vascularization of pancreatic islets and beta-cell organoids” (CORNELL UNIVERSITY, priority 2019, dated 2026) can be followed below.

The test system of one assay is Rap1. The experiment in a line: Rap1 inhibition experiment, R-VEC tube formation. It counts as cell-based, human. The settings on record: R-VECs, 10 μM, 4 weeks. The method, then: Tube formation assays for endothelial cells with or without ETV2 were set up in 24 wells as described above. The next day, Rap1 inhibitor (GGTI-298, Tocris) resuspended in DMSO was added to the wells at a 1:1000 dilution at the final concentration of 10 μM, while the same amount of DMSO was added to the control wells. The inhibitor and media were changed every other day for 4 weeks. Images were obtained and calculated as described above at 1 week and 4 week time points.

For a further assay, the system named is ETV2 protein levels. The experiment in a line: Proteasome inhibition experiment in R-VEC tubes. It counts as cell-based, human. The conditions noted are these: R-VEC tubes at stabilization stage (4 weeks), 20 μM for 6 hrs vs DMSO, Western blot. Here is the method:
Cells were lysed into 1×SDS loading buffer (50 mM Tris-HCl pH 6.8, 5% beta-mercaptoethanol, 2% SDS, 0.01% bromophenol blue, 10% glycerol) followed by sonication (Bioruptor, 2×30 seconds at high setting). Proteins were solved on 5-15% gradient Tris-glycine SDS-PAGE and semi-dry transferred to nitrocellulose membranes. The following primary antibodies were used at indicated dilutions: Rap1 (CST, #2399, 1:1,000); RASGRP3 (CST, #3334, 1:1,000), GAPDH (CST, #5174, 1:10,000); AKT (CST, 34685, 1:5,000); p-S473-Akt (CST, #4060, 1:2,000); ETS1 (CST, #14069, 1,000); and ETV2 (Abcam, ab181847, 1:1,000). HRP-conjugated secondary antibodies and the ECL Prime Western Blotting System (GE Healthcare, RPN2232) were then used. Chemiluminescent signals were captured with a digital camera (Kindle Biosciences) and images of protein bands taken for quantification using ImageJ.
R-VEC vessels were prepared on Matrigel as described above. At stabilization stage (4 weeks), R-VEC tubes were treated with either 20 μM of MG132 (Selleck Chemicals) or DMSO for 6 hrs. The media was removed and the wells were washed once with PBS. R-VEC tubes were then incubated in a solution of 2 mg/ml Dispase (Sigma) for 45 mins at 37° C. to dissociate the tubes. 20 μM of MG132 (Selleck Chemicals) or DMSO was continuously provided during the dissociation period. […]
For orientation: In western blotting, separated proteins are transferred to a membrane and probed.

SMILES strings stand for the structures. Residues, ends and D or L forms follow the SMILES beside them. *: point of attachment. Cbz = O=C(OCc1ccccc1)*

As for `COC(=O)[C@H](CC(C)C)NC(=O)c1ccc(NC[C@@H](N)CS)cc1-c1cccc2ccccc12` [GGTI298], the lumen entry in the assay on Rap1 (confocal and electron microscopy) is “no lumen was present”. Besides, the vessel formation result with Rap1 (vs DMSO) is listed as “significantly reduced”.
Turning to `CC(C)C[C@@H](C=O)NC(=O)[C@H](CC(C)C)NC(=O)[C@H](CC(C)C)NC(=O)OCc1ccccc1` [MG132] (Cbz-Leu-Leu-Leu-aldehyde), the “ETV2 protein levels restored” value in the assay with ETV2 protein levels is “six-fold”.
